Measured values from US7829562B2, “Sigma ligands for neuronal regeneration and functional recovery” (M's Science Corporation, priority 2003, dated 2010).

How the values were obtained:
[1] = test system: spontaneously hypertensive rats exposed to permanent middle artery occlusion (MCAO); assay: Cylinder test for asymmetric forelimb use after MCA occlusion; format: in vivo, rat; details: for performance in cylinder test versus control animals: 0.03-10 mg/kg s.c. or p.o. from two days after MCAO for 2-8 weeks, present-tense example
Source text: (§1) Male 3 months old SHR (spontaneous hypertensive) rats are used for induction of stroke by MCA occlusion. This is the preferred strain since most stroke patients are hypertensive. The animals are anesthetized with Methohexital and a small craniectomy is made above the zygmotic arch to expose the middle cerebral artery, which is occluded with a 10-0 monofilament nylon thread distal to the origin of the striatal branches. The rats are not intubated and no catheters are inserted. Following MCA occlusion a large and reproducible infarct is obtained, leading to a robust sensorimotor deficit. The animals are kept on a 6 hr light/18 h dark cycle with free access to food and water. At two days after the MCAO the rats are treated with the compound I, II, III, IV, V, VI, VII, VIII, or IX (0.03-10 mg/kg) s.c. or p.o. and a control group is given saline for 2-8 weeks. At 2, 4, 6 and 8 weeks animals are tested in the rotating pole or cylinder test.
The cylinder test (modified from Schallert and Tillerson (Innovative models of CNS disease: from molecule to therapy. Clifton, N.J., Humana, 1999) is used to quantify the forelimb use for rearing on the cylinder wall. The rats are monitored as they move freely in a 20-cm-wide clear glass cylinder. Contacts made by each forepaw with the cylinder wall while rearing are scored by a blinded observer. A total of 20 contacts are recorded for each animal, and the number of impaired (left), both, and non-impaired forelimb contacts as percentage of total contacts is calculated. Baseline for rats is achieved by measuring the contacts made by each forepaw before MCAO.
Forty three spontaneously hypertensive rats were exposed to permanent middle artery occlusion (MCAO), then divided into three treatment groups. Starting at two days after occlusion and continuing daily for 14 days, AGY-94806 was administered p.o. in doses of 0.1 mg/kg (14 rats) or 0.3 mg/kg (14 rats). In a control group (15 rats), vehicle only was administered. At the start of treatment, and at several time points during the test, the rats were assessed for their performance in the cylinder test. This test is described in Example 1. It measures the sensory-motor performance of the animals. The performance of the rats in the test was assessed one day before permanent MCAO, then at 14 days, 28 days and 59 days after permanent MCAO. The rats were monitored as they moved freely in a 20 cm-wide clear glass cylinder. Contacts made by each forepaw with the cylinder wall while rearing were scored by a blinded observer. A total of 20 contacts were recorded for each animal, and the number of impaired (left), both, and non-impaired forelimb contacts as a percentage of total contacts was calculated.

[2] = test system: spontaneously hypertensive rats exposed to permanent middle artery occlusion (MCAO); assay: Rotating pole test after MCA occlusion (stroke model); format: in vivo, rat; details: 0.03-10 mg/kg s.c. or p.o. from two days after MCAO for 2-8 weeks; present-tense example
Source text: as §1
Cylinder Test for Asymmetric Use of Forelimb Use in Spontaneous Rearing
Thirty five spontaneously hypertensive rats were exposed to permanent middle artery occlusion (MCAO), then divided into three treatment groups. Starting at two days after occlusion and continuing daily until 28 days after occlusion, AGY-94806 was administered s.c. in doses of 0.3 mg/kg (12 rats) or 1.0 mg/kg (12 rats). In a control group (11 rats), vehicle only was administered. At the start of treatment, and at several time points during the test, the rats were assessed for their performance in the rotating pole model. This model is described in Example 1. It requires the rats to cross a horizontally suspended rotating pole having a length of 1 m. This task measures the sensory-motor performance of the animals. The animals' behaviour was recorded using a video camera and later analyzed and scored by a trained technician. The scoring ranges from 0 to 6, with 0 being very poor performance and 6 reflecting the performance of a healthy animal (without MCAO).

[3] = test system: NMDA-induced toxicity and seizures; details: in vivo models; cited from earlier work
[4] = test system: rat primary neuronal cultures; details: cited from earlier work
[5] = test system: gerbils; details: cited from earlier work
[6] = target: sigma-1 site compared to the sigma-2 site (Homo sapiens, UniProt Q99720); details: (+) isomers of benzomorphan opiates; cited from earlier work
Sequence of sigma-1 site compared to the sigma-2 site (Q99720 whole entry): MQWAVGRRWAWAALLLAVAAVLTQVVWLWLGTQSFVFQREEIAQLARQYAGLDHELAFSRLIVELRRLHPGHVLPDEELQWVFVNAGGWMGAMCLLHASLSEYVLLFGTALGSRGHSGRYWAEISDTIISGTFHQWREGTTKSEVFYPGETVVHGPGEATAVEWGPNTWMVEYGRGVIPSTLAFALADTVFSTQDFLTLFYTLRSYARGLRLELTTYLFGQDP

SMILES | performance in cylinder test versus control animals [1] | performance in rotating pole test versus control animals [2] | further results
O=C(OCCN1CCOCC1)C1(c2ccccc2)CCCCC1 [III] | perform better | perform better | 
COc1ccc(CN2CCN(Cc3ccccc3)CC2)c(O)c1OC [IX] | perform better | perform better | 
COCCCC/C(=N\OCCN)c1ccc(C(F)(F)F)cc1 [I] | perform better | perform better | 
O=C(CCCN1CCC(O)(c2ccc(Cl)cc2)CC1)c1ccc(F)cc1 [haloperidol] |  |  | protective effects against NMDA-induced toxicity and seizures [3]: in vivo protective effects
CN(CCc1ccc(Cl)c(Cl)c1)C1CCCCC1N1CCCC1 (stereo not shown) [VIII] | perform better | perform better | 
COc1ccc(CCN2CCN(CCCc3ccccc3)CC2)cc1OC [AGY-94806, 1-(3,4-dimethoxyphenethyl)-4-(3-phenylpropyl) piperazine] | perform better | perform better | asymmetry of paw usage ([1]; 0.3 mg/kg p.o., all time points measured): reduced to pre-MCAO levels; hypoxia/hypoglycemia-induced neurotoxicity [4]: significantly suppress
CCN(CC)CCOC(=O)C1(c2ccccc2)CCCC1 [caramiphen] |  |  | protective effects against NMDA-induced toxicity and seizures [3]: in vivo protective effects
O=C(NC1CCN(Cc2ccccc2)CC1)c1ccc(I)cc1 [II] | perform better | perform better | 
Fc1ccc(-n2cc(CCCCN3CCC4(CC3)OCc3ccccc34)c3ccccc32)cc1 [V] | perform better | perform better | 
CCC(C/C=C/c1ccccc1)(c1ccccc1)N(C)CC1CC1 (stereo not shown) [VI] | perform better | perform better | 
OCCN1CCN(CCCN2c3ccccc3C=Cc3ccccc32)CC1 [opipramol] |  |  | protection against ischemia [5]: protect against ischemia
CC(C)=CCN1CCC2(C)c3cc(O)ccc3CC1C2C (single isomer, unassigned; (+)) [(+)pentazocine] |  |  | affinity for the sigma-1 site compared to the sigma-2 site [6]: nearly two orders of magnitude higher affinity
COc1cccc2c1CCC(=O)N2CCCN1CCN(c2cccc(Cl)c2)CC1 [VII] | perform better | perform better | 
OC(CCCN1CCN(c2ncc(F)cn2)CC1)c1ccc(F)cc1 (stereo not shown) [BMY-14802] |  |  | protective effects against NMDA-induced toxicity and seizures [3]: in vivo protective effects
